Experimental data: PubChem BioAssay (NCI)
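Grown in 96-well plates, cells were treated for 48 hours with each compound at five concentrations. Insufficient inhibition: endpoint recorded as highest concentration tested. TGI: total growth inhibition.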

What was measured:
Assay in all cases: growth of human tumour cells (NCI), 48 h
UO-31 renal = system: UO-31 renal
COLO 205 colon = system: COLO 205 colon
KM20L2 colon = system: KM20L2 colon
SK-MEL-5 melanoma = system: SK-MEL-5 melanoma
NCI-H522 lung = system: NCI-H522 lung
SN12C renal = system: SN12C renal
HT29 colon = system: HT29 colon
SW-620 colon = system: SW-620 colon
LXFL 529 NSCLC = system: LXFL 529 NSCLC
A498 renal = system: A498 renal
K-562 leukemia = system: K-562 leukemia
ACHN renal = system: ACHN renal
SF-295 CNS = system: SF-295 CNS
SF-268 CNS = system: SF-268 CNS
IGROV1 ovarian = system: IGROV1 ovarian
HCT-116 colon = system: HCT-116 colon
SNB-19 CNS = system: SNB-19 CNS
CCRF-CEM leukemia = system: CCRF-CEM leukemia
DLD-1 colon = system: DLD-1 colon
MOLT-4 leukemia = system: MOLT-4 leukemia
NCI-H226 lung = system: NCI-H226 lung
RXF 393 renal = system: RXF 393 renal
786-0 renal = system: 786-0 renal
SR leukemia = system: SR leukemia
DMS 114 small cell lung = system: DMS 114 small cell lung
RPMI-8226 leukemia = system: RPMI-8226 leukemia
OVCAR-4 ovarian = system: OVCAR-4 ovarian
HCT-15 colon = system: HCT-15 colon
M19-MEL melanoma = system: M19-MEL melanoma
EKVX NSCLC = system: EKVX NSCLC
UACC-257 melanoma = system: UACC-257 melanoma
SF-539 CNS = system: SF-539 CNS
HOP-92 NSCLC = system: HOP-92 NSCLC
SNB-75 CNS = system: SNB-75 CNS
SNB-78 CNS = system: SNB-78 CNS
SK-OV-3 ovarian = system: SK-OV-3 ovarian
A549 NSCLC = system: A549 NSCLC
DMS 273 small cell lung = system: DMS 273 small cell lung
U251 CNS = system: U251 CNS
HCC-2998 colon = system: HCC-2998 colon
HL-60(TB) leukemia = system: HL-60(TB) leukemia
UACC-62 melanoma = system: UACC-62 melanoma
OVCAR-8 ovarian = system: OVCAR-8 ovarian
HOP-18 NSCLC = system: HOP-18 NSCLC
HOP-62 NSCLC = system: HOP-62 NSCLC
SK-MEL-28 melanoma = system: SK-MEL-28 melanoma
NCI-H23 lung = system: NCI-H23 lung
MALME-3M melanoma = system: MALME-3M melanoma
M14 melanoma = system: M14 melanoma
TK-10 renal = system: TK-10 renal
NCI-H460 lung = system: NCI-H460 lung
LOX IMVI melanoma = system: LOX IMVI melanoma
OVCAR-3 ovarian = system: OVCAR-3 ovarian
KM12 colon = system: KM12 colon

CCCCCCCC(=O)OCC(C[As](=O)(O)O)OC(=O)CCCCCCC (stereo not given)
TGI (UO-31 renal): 28.2 µM
TGI (COLO 205 colon): 27.6 µM
TGI (KM20L2 colon): 30.7 µM
TGI (SK-MEL-5 melanoma): 32 µM
TGI (NCI-H522 lung): 26.6 µM
TGI (SN12C renal): 27.9 µM
TGI (HT29 colon): 33.4 µM
TGI (SW-620 colon): 29.1 µM
TGI (LXFL 529 NSCLC): 26.3 µM
TGI (A498 renal): 33.2 µM
TGI (K-562 leukemia): 81.9 µM
TGI (ACHN renal): 30.6 µM
TGI (SF-295 CNS): 30.6 µM
TGI (SF-268 CNS): 28.7 µM
TGI (IGROV1 ovarian): 26.9 µM
TGI (HCT-116 colon): 30.3 µM
TGI (SNB-19 CNS): 28.2 µM
TGI (CCRF-CEM leukemia): 28 µM
TGI (DLD-1 colon): 30.9 µM
TGI (MOLT-4 leukemia): 51.9 µM
TGI (NCI-H226 lung): 37.5 µM
TGI (RXF 393 renal): 18.2 µM
TGI (786-0 renal): 30.9 µM
TGI (SR leukemia): 60.8 µM
TGI (DMS 114 small cell lung): 30.6 µM
TGI (RPMI-8226 leukemia): > 100 µM
TGI (OVCAR-4 ovarian): 34 µM
TGI (HCT-15 colon): 28.5 µM
TGI (M19-MEL melanoma): 32.4 µM
TGI (EKVX NSCLC): 33.8 µM
TGI (UACC-257 melanoma): 28.1 µM
TGI (SF-539 CNS): 27.1 µM
TGI (HOP-92 NSCLC): 25.4 µM
TGI (SNB-75 CNS): 31.1 µM
TGI (SNB-78 CNS): 44.1 µM
TGI (SK-OV-3 ovarian): 29.1 µM
TGI (A549 NSCLC): 53.3 µM
TGI (DMS 273 small cell lung): 27.4 µM
TGI (U251 CNS): 28.2 µM
TGI (HCC-2998 colon): 31.7 µM
TGI (HL-60(TB) leukemia): 38.9 µM
TGI (UACC-62 melanoma): 27 µM
TGI (OVCAR-8 ovarian): 30.3 µM
TGI (HOP-18 NSCLC): 29.3 µM
TGI (HOP-62 NSCLC): 34.5 µM
TGI (SK-MEL-28 melanoma): 29.3 µM
TGI (NCI-H23 lung): 28.7 µM
TGI (MALME-3M melanoma): 28.5 µM
TGI (M14 melanoma): 28.5 µM

O=[P+](O)c1cc2ccccc2c2ccccc12
TGI (COLO 205 colon): > 100 µM
TGI (KM20L2 colon): > 100 µM
TGI (TK-10 renal): > 100 µM
TGI (SK-MEL-5 melanoma): > 100 µM
TGI (NCI-H522 lung): > 100 µM
TGI (SN12C renal): > 100 µM
TGI (HT29 colon): > 100 µM
TGI (SW-620 colon): > 100 µM
TGI (NCI-H460 lung): > 100 µM
TGI (LXFL 529 NSCLC): > 100 µM
TGI (K-562 leukemia): > 100 µM
TGI (LOX IMVI melanoma): > 100 µM
TGI (SF-295 CNS): > 100 µM
TGI (SF-268 CNS): > 100 µM
TGI (IGROV1 ovarian): > 100 µM
TGI (HCT-116 colon): > 100 µM
TGI (SNB-19 CNS): > 100 µM
TGI (CCRF-CEM leukemia): > 100 µM
TGI (DLD-1 colon): > 100 µM
TGI (MOLT-4 leukemia): > 100 µM
TGI (NCI-H226 lung): > 100 µM
TGI (RXF 393 renal): > 100 µM
TGI (786-0 renal): > 100 µM
TGI (OVCAR-3 ovarian): > 100 µM
TGI (DMS 114 small cell lung): > 100 µM
TGI (RPMI-8226 leukemia): > 100 µM
TGI (OVCAR-4 ovarian): > 100 µM
TGI (M19-MEL melanoma): > 100 µM
TGI (EKVX NSCLC): > 100 µM
TGI (SF-539 CNS): > 100 µM
TGI (SNB-75 CNS): > 100 µM
TGI (SNB-78 CNS): > 100 µM
TGI (SK-OV-3 ovarian): > 100 µM
TGI (A549 NSCLC): > 100 µM
TGI (DMS 273 small cell lung): > 100 µM
TGI (KM12 colon): > 100 µM
TGI (U251 CNS): > 100 µM
TGI (HCC-2998 colon): > 100 µM
TGI (HL-60(TB) leukemia): > 100 µM
TGI (UACC-62 melanoma): > 100 µM
TGI (OVCAR-8 ovarian): > 100 µM
TGI (HOP-18 NSCLC): > 100 µM
TGI (HOP-62 NSCLC): > 100 µM
TGI (SK-MEL-28 melanoma): > 100 µM
TGI (NCI-H23 lung): > 100 µM
TGI (M14 melanoma): > 100 µM
